The values below come from patent publication US9834820B2, “Methods for the treatment and diagnosis of bone mineral density related diseases” (INSERM (Institut National de la Sante et de la Recherche …, priority 2007, dated 2017).

For test [1], the system named is OPG expression in primary cultured osteoblasts. Description: real-time quantitative PCR of OPG mRNA in primary cultured osteoblasts. It is filed as cell-based, human. The settings on record: for OPG expression compared to control values: p<0.005; for OPG mRNA levels (in words): osteoblasts, FIG. 2b. As for the experimental part: (§1) Human normal cranial suture were obtained after signed informed consent during routine surgery for craniosynostosis. Osteoblasts were cultured in Dulbecco's modified Eagle medium (with 10% fetal bovine serum) as described elsewhere (De Pollack, C. et al. 1996). […] Cells were harvested at day 3. Real-time quantitative PCR using Light Cycler technology (Roche Manheim) was performed for OPG and RANKL mRNA in each sample. The experiments were performed five times. In each experiment, samples were run in triplicate. The amounts of OPG and RANKL mRNA were normalized to the amount of β-actin mRNA. Student test was used for p values determination.

For test [2], the system named is TXAS. Conditions: read-out: IC50 as selective inhibitor of TXAS; cited from earlier work.
Test [3] deals with RANKL expression in primary cultured osteoblasts. Description: real-time quantitative PCR of RANKL mRNA in primary cultured osteoblasts. Type of test: cell-based, human. The settings on record: for RANKL mRNA levels (in words): osteoblasts, FIG. 2b. As for the experimental part: as §1

Entries after “also recorded” stand apart in the source; their conditions may differ.

Turning to `O=C(O)/C=C/c1ccc(Cn2ccnc2)cc1` [Ozagrel], the “OPG expression compared to control values” in test [1] (Ozagrel 0.25 μM added daily during 3 days, normalized to β-actin mRNA) was “+50%”. Moreover, the “OPG mRNA levels (in words)” value in test [1] is reported as “augmentation”. Further, the 50% inhibitory concentration (IC50) in test [2] was 11 nM. Moreover, the “RANKL expression compared to control values” in test [3] (Ozagrel 0.25 μM added daily during 3 days, normalized to β-actin mRNA, p<0.005) is on record as −78%. In addition, the “RANKL mRNA levels (in words)” value in test [3] is recorded as “diminution”.
Take `CCCCC[C@H](O)/C=C/[C@H]1CC2CC(C2)[C@@H]1C/C=C\CCCC(=O)O` [CTA2]: the “OPG expression compared to control values” in test [1] (CTA2 5 μM added at day one, harvested day 3) is given as −40%; in test [1] (CTA2 15 μM added at day one, harvested day 3), −53%. The “OPG mRNA levels (in words)” value in test [1] was “diminution; also recorded: decreased”. Also, the “RANKL expression compared to control values” in test [3] (CTA2 5 μM added at day one, harvested day 3, p<0.005) is reported as “+94%”; in test [3] (CTA2 15 μM added at day one, harvested day 3, p<0.03) it was “+471%”. The “RANKL mRNA levels (in words)” value in test [3] is listed as “augmentation; also recorded: increased”.

In general, IC50 refers to the concentration that gives 50% inhibition.
